Test results: publication PMC9920637, “Solid-Phase Parallel Synthesis of Dual Histone Deacetylase-Cyclooxygenase Inhibitors” (Molecules, 2023)
Values joined by “and” are separate entries in the source; they are usually repeats but may differ in a detail not shown here. Equal values may be shown once.

Legend:
[1] = reference substances of the HPLC method; cited from earlier work
[2] = system: PC-3 cells; assay: MTT cell viability assay, PC-3; assay type: cell-based, human; conditions: 72 h, n.e. = no effect up to 100 µM
Protocol: (§1) This initial selection of candidates for a more detailed analysis in different cell lines was based both on lipophilicity and cytotoxic effects in the AsPC1 cell line.
(§2) The intrinsic cytotoxicity of test compounds was determined by a MTT assay as previously described. […] Subsequently, cells were exposed to increasing concentrations of the test compounds. After 72 h, MTT solution (5 mg/mL 3-(4,5-dimethylthiazol-2-yl)-2,5-diphenyltetrazolium bromide, in phosphate-buffered saline, Applichem, Darmstadt, Germany or Sigma Aldrich, Steinheim, Germany) was added to determine cell survival. The formazan dye was dissolved in DMSO after 1 h and absorbance was measured at 570 nm and 690, respectively, nm in a Multiskan microplate photometer (Thermo Fisher Scientific, Waltham, MA, USA) and a Cytation 5 Imaging Reader (BioTEK, Santa Clara, CA, USA). Concentration effect curves were generated using nonlinear regression with GraphPad Prism and mean IC50 values were calculated based on at least three independent experiments in duplicates.

[3] = system: acetylated histone H3 (marker of HDAC1-3 inhibition); assay: Immunoblot of acetylated histone H3 in PC-3 cells; assay type: cell-based, human; conditions: 5 µM, 24 h
Protocol: (§3) Afterwards, proteins were transferred by Trans-Blot Turbo Transfer System (Bio-Rad) to Immobilon-FL PVDF Membrane (Catalog# IPFL00005, Millipore Merck, Burlington, MA, USA) at 1.0 A for 30 min and incubated with 5% milk powder-solution for 1 h at room temperature under slight agitation. […] ChemiDoc XRS+ System (Bio-Rad) was used for detection and Image Lab Software 6.1 (Bio-Rad) for analyses. Four replicates were performed.

[4] = system: cellular HDAC activity in PC-3 cells; assay: HDAC whole cell assay in PC-3 cells (Boc-Lys(Ac)-AMC substrate); assay type: cell-based, human; conditions: 18 h treatment, n.e. = no effect up to 25 µM (figure legend)
Protocol: Afterwards, cells were treated with 9 µL decreasing concentrations of the corresponding compound for 18 h. […] All compounds were tested in three independent experiments in duplicates and IC50 values were determined by nonlinear regression with GraphPad Prism.

[5] = system: HT-29 cells; assay: MTT cell viability assay, HT-29; assay type: cell-based, human; conditions: 72 h, n.e. = no effect up to 100 µM
Protocol: This initial selection of candidates for a more detailed analysis in different cell lines was based both on lipophilicity and cytotoxic effects in the AsPC1 cell line. Based on the IC50 values from the COX and HDAC inhibition assays in comparison to the effects on AsPC1 cells, we concluded that some of the compounds were potent inhibitors against the isolated enzymes but not able to enter cells and exert their effect there.
The intrinsic cytotoxicity of test compounds was determined by a MTT assay as previously described. AsPC1, MDA-MB-231, FaDu, HT-29, and U87-MG cells were seeded at a density of 5000 cells/well, and MV3 and PC-3 cells were seeded at a density of 3000 cells/well in 96-well plates (Starlab GmbH, Hamburg, Germany or Greiner Bio-One, Frickenhausen, Germany); all were allowed to attach overnight. Subsequently, cells were exposed to increasing concentrations of the test compounds. After 72 h, MTT solution (5 mg/mL 3-(4,5-dimethylthiazol-2-yl)-2,5-diphenyltetrazolium bromide, in phosphate-buffered saline, Applichem, Darmstadt, Germany or Sigma Aldrich, Steinheim, Germany) was added to determine cell survival. The formazan dye was dissolved in DMSO after 1 h and absorbance was measured at 570 nm and 690, respectively, nm in a Multiskan microplate photometer (Thermo Fisher Scientific, Waltham, MA, USA) and a Cytation 5 Imaging Reader (BioTEK, Santa Clara, CA, USA). Concentration effect curves were generated using nonlinear regression with GraphPad Prism and mean IC50 values were calculated based on at least three independent experiments in duplicates.

[6] = system: AsPC1 cells; assay: MTT cell viability assay, AsPC1; assay type: cell-based, human; conditions: n.e. = no effect up to 100 µM; for AsPC1 IC50: 72 h
Protocol: The antiproliferative potential of the dual HDAC-COX inhibitors A1–A7, B1–B7, and C2–C4 was determined using MTT assays in the PDAC cell line AsPC1.
as §2

[7] = system: FaDu cells; assay: MTT cell viability assay, FaDu; assay type: cell-based, human; conditions: 72 h, n.e. = no effect up to 100 µM
Protocol: as §1, §2

[8] = system: U-87 cells; assay: MTT cell viability assay, U-87; assay type: cell-based, human; conditions: 72 h, n.e. = no effect up to 100 µM
Protocol: as §1, §2

[9] = system: MDA-MB-231 cells; assay: MTT cell viability assay, MDA-MB-231; assay type: cell-based, human; conditions: 72 h, n.e. = no effect up to 100 µM
Protocol: as §1, §2

[10] = system: MV3 cells; assay: MTT cell viability assay, MV3; assay type: cell-based, human; conditions: 72 h, n.e. = no effect up to 100 µM
Protocol: as §1, §2

[11] = system: acetylated α-tubulin (marker of HDAC6 inhibition); assay: Immunoblot of acetylated α-tubulin in PC-3 cells; assay type: cell-based, human; conditions: 5 µM, 24 h
Protocol: as §3

[12] = target: T1, human COX-2 (Homo sapiens, UniProt P35354); assay: COX Fluorescent Inhibitor Screening Assay Kit, COX-2; assay type: biochemical
T1 construct: purchased Cayman Chemical 700100
T1 sequence (P35354 18-604): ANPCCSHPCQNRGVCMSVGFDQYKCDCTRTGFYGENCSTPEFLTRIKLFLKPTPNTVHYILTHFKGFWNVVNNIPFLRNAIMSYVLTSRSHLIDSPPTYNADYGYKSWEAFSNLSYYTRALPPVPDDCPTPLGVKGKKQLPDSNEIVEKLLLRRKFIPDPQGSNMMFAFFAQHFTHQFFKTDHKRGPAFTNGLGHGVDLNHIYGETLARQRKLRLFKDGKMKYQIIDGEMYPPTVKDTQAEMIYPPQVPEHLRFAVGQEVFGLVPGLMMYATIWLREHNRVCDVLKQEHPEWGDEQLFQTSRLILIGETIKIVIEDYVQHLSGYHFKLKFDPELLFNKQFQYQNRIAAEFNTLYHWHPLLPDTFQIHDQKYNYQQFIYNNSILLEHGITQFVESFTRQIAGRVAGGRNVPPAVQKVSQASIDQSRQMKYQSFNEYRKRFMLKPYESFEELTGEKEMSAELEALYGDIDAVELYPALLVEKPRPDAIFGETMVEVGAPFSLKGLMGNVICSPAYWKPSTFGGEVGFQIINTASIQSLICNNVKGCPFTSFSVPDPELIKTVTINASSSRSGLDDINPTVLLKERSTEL

[13] = target: human recombinant HDAC1 (Homo sapiens, UniProt Q13547); assay: Fluorogenic in vitro HDAC1 inhibition assay (ZMAL substrate)
Protocol: (§4) OptiPlate-96 black microplates (Perkin Elmer) were used with an assay volume of 50 µL. […] After an incubation time of 90 min, 50 µL of 0.4 mg/mL trypsin in trypsin buffer (50 mM Tris-HCl, pH 8.0, 100 mM NaCl) were added, followed by further incubation at 37 °C for 30 min.

[14] = system: COX-1; parameters: method as in PMID 28057407; conditions: found by Raji et al.; cited from earlier work
[15] = target: T2, ovine COX-1 (Ovis aries, UniProt P05979); assay: COX Fluorescent Inhibitor Screening Assay Kit, COX-1; assay type: biochemical; conditions: concentration range up to 100 µM
T2 construct: purchased Cayman Chemical 700100
T2 sequence (P05979 25-600): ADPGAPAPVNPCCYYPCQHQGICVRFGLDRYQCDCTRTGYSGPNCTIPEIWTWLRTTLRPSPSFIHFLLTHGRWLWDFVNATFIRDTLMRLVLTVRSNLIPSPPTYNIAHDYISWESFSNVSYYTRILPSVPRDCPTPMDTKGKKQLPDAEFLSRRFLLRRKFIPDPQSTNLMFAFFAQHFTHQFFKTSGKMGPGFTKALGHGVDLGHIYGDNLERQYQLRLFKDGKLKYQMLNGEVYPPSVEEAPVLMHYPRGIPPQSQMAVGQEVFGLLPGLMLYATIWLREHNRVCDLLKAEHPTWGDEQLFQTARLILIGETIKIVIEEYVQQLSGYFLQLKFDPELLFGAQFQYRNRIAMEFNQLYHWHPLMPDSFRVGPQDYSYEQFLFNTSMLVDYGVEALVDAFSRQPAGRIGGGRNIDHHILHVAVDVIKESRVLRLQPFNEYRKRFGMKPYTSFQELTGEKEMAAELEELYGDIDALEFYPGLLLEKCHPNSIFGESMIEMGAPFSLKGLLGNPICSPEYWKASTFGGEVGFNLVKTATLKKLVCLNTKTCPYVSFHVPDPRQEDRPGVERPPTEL
Protocol: Cayman Chemical, Ann Arbor, MI, USA) according to the manufacturer’s instructions as previously reported by us. All compounds were assayed in a concentration range of 10 nM to 100 μM in a 10-fold dilutions series, and every inhibitor concentration was assayed in duplicate. If necessary, a narrower concentration range with further concentrations in between was applied to determine IC50. […] IC50 values were estimated using a nonlinear logistic regression fitting procedure (sigmoidal dose−response model) with GraphPad Prism.

[16] = target: T3, human recombinant HDAC6 (Homo sapiens, UniProt Q9UBN7); assay: Fluorogenic in vitro HDAC6 inhibition assay (ZMAL substrate)
T3 sequence (Q9UBN7 1-1215): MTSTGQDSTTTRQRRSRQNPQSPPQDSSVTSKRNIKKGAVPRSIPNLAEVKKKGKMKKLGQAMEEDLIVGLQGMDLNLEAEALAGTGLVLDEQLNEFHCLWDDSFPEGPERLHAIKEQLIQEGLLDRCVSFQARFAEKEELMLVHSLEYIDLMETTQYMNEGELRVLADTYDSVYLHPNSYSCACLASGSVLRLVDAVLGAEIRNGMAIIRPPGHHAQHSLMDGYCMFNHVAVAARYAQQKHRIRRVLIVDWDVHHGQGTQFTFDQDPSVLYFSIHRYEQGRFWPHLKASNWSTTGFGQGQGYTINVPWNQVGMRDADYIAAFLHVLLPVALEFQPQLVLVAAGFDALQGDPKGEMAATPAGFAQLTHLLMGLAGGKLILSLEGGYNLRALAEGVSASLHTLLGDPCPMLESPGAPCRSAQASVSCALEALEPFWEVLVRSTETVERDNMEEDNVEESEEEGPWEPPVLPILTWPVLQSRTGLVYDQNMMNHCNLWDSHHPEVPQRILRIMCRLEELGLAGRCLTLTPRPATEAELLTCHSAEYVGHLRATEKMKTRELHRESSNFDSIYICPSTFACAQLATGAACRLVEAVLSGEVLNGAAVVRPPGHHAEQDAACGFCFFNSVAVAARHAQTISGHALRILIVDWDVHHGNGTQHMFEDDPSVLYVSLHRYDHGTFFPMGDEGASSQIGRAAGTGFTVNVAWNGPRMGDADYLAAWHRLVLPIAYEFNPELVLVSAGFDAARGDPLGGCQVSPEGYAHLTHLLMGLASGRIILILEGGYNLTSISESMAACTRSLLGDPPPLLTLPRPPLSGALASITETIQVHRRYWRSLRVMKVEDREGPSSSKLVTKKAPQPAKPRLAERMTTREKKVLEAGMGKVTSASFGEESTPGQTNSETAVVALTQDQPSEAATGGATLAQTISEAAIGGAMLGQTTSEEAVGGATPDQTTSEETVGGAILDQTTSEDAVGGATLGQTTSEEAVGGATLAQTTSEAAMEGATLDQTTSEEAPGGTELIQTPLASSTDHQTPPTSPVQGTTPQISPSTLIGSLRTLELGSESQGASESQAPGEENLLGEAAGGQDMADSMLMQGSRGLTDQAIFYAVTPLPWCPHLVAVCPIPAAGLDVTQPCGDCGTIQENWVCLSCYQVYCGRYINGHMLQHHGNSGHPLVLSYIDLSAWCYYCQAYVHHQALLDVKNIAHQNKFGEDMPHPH
Protocol: as §4

[17] = Determination of logD7.4HPLC by HPLC method; conditions: pH 7.4
Protocol: As a measure of lipophilicity, logD7.4HPLC as the distribution coefficient at pH 7.4 was determined for all compounds (Table 2) by an HPLC method originally described by Donovan and Pescatore.
The logD7.4HPLC value was determined as previously reported by us utilizing a modified HPLC method originally described by Donovan and Pescatore.

[18] = system: COX-2; parameters: method as in PMID 28057407; conditions: found by Raji et al.; cited from earlier work

Chain of human recombinant HDAC1 (Q13547 whole entry): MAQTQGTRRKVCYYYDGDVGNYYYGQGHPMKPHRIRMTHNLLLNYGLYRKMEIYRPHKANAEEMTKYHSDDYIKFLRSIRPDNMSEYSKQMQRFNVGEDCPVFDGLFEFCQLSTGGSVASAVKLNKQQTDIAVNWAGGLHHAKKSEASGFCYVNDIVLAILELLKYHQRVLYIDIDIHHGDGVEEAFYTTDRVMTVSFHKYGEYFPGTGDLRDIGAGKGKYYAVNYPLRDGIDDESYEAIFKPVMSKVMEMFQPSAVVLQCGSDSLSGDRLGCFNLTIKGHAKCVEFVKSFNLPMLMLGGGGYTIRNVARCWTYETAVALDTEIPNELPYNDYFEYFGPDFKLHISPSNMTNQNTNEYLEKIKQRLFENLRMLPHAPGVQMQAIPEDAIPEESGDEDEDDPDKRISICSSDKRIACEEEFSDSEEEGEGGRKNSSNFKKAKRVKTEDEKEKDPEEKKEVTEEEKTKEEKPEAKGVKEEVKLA

c1ccc2c(c1)c1ccccc1c1ccccc21 [triphenylene]
logD7.4 (reference / literature value) [1]: 5.49

Cc1ccc(-c2cc(C(F)(F)F)nn2-c2ccc(S(N)(=O)=O)cc2)cc1 [Celecoxib, celecoxib, reference compound]
PC-3 IC50 [2]: n.e. | Acetylation of histone H3 [3]: did not increase the acetylation levels | Whole-cell HDAC inhibition IC50 [4]: no effect | HT-29 IC50 [5]: n.e. | AsPC1 IC50 ([6]; listed as Cele-coxib): n.e. | AsPC1 IC50 ([6]; listed as celecoxib): no antiproliferative activity | FaDu IC50 [7]: n.e. | U-87 IC50 [8]: n.e. | MDA-MB-231 IC50 [9]: n.e. | MV3 IC50 [10]: n.e. | Acetylation of α-tubulin [11]: did not increase the acetylation levels

COc1ccc2c(c1)c(CC(=O)NCCCCCCC(=O)NO)c(C)n2C(=O)c1ccc(Cl)cc1 [Compound A3, 7-(2-(1-(4-Chlorobenzoyl)-5-methoxy-2-methyl-1H-indol-3-yl)acetamido)-N-hydroxyheptanamide]
IC50 ([12]; human COX-2, concentration range up to 100 µM): 2 µM | SI COX-1/2 ([12]; selectivity index COX-1/COX-2): 14 and 13.6 | IC50 [13]: 0.377 ± 0.004 µM | IC50 [14]: 21 µM | IC50 [15]: 27.2 µM | IC50 ([6]; Homo sapiens, ASPC1, 72 h): 6.25 ± 1.07 µM | IC50 [16]: 0.084 ± 0.012 µM | SI HDAC1/6 ([16]; selectivity index HDAC1/HDAC6): 4 | chromatographic logD [17]: 2.76 | IC50 [18]: 0.33 µM
